Patent US20030186464A1, “Surface plasmon resonance methods” (priority 2002, published 2003)
Numbering of substitutions follows the chain as printed.

Tests used:
[1] = target: T1, IL1R-I13C (Homo sapiens, UniProt P14778, I30C); assay: SPR ranking of reversible covalent (disulfide) bond formation with immobilized protein-thiolate (Examples 5-6); type: binding; conditions: disulfide compound 100 μM, reductant 500 μM; fraction of protein-thiolate on the chip covalently bound
T1 construct: soluble interleukin-1 receptor, type 1 having a mutation to cysteine; made in house; host or cells: E. coli or baculovirus-infected insect cells (TN-5B1-4, High Five)
T1 sequence (P14778 18-336 I30C): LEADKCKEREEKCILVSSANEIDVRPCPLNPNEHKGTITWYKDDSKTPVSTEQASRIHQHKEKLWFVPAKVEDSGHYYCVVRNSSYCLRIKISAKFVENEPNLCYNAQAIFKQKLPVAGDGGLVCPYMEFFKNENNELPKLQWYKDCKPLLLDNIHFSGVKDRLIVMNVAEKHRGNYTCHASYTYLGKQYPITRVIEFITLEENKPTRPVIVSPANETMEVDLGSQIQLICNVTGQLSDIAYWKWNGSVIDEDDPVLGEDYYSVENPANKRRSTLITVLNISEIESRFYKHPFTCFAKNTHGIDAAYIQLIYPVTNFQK
Procedure: (§1) A CM5 sensor chip (Biacore-BR-1000-14) is docked in a Biacore 2000 SPR device, and the chip is normalized using a standard Biacore protocol with 70% glycerol. The chip is equilibrated in PBS for approximately 1 hr at a 20 μL/min flow rate. The dextran surface of the chip is activated through an NHS/EDC coupling. This is done using an amine coupling kit (Biacore—BR-100-50) containing N-hydroxysuccinimide (NHS 11.5 mg/mL) and N-ethyl-N′-(3-dimethylaminopropyl) carbodiimide hydrochloride (EDC 75 mg/mL). The two reagents are mixed in a 1:1 ratio and then 35 μL of the mixture are injected at 5 μL/min. The chip is activated one flow cell at a time, and that flow cell is subsequently labeled with protein.
(§2) Protein having at least one cysteine is expressed in E. coli or baculovirus-infected insect cells (TN-5B1-4, High Five) and purified using standard procedures. This protein-thiolate is treated with 10 mM βME overnight to reduce the surface cysteine. The βME is removed and the protein-thiolate is placed in 100 mM MES Buffer pH 5.75 (Nap-5 column, Pierce). The protein-thiolate is then concentrated to 100 μM using a Millipore-UFV5BCCOO 5K NMWL membrane, 0.5 mL centrifugal filter and tube.
(§3) A sensorgram is then run over the activated flow cell at 2 μL/min of PBS. The protein-thiolate solution is then injected at 2 μL/min for 10 min. After injection one measures the change in RUs by marking the RUs at t=0 and t final and subtracting them. This subtraction gives the total RU change that is related to the total mass of protein successfully coupled to the CM5 surface. This value will later be used to determine stoichiometry of binding. This procedure is then repeated with various cysteine mutants that are immobilized on the adjacent cells. The sensorgram is then altered to flow across all 4 cells on the CM5 chip at 5,L/min PBS. A solution of 1 M ethanolamine hydrochloride-NaOH pH 8.5 (Amine coupling kit, Biacore—BR-100-50) is injected at 5 μL/min for 7 min. The chip is equilibrated overnight in 100 mM Tris pH 8+0.05% azide+1% DMSO at 20 μL/min.
(§4) Compounds are synthesized with a reactive disulfide linker (see, for example compound 2t in Example 2). From previous “tethering” experiments compounds that preferentially bind and form a covalent bond with specific cysteine mutants at the active sites of proteins are chosen for these SPR experiments. The compounds are known to form this covalent attachment at relatively high levels of reductant [βME (2-mercaptoethanol, Sigma)], indicating a […] noncovalent binding interaction.
(§5) Dilutions series of the compounds are typically performed to produce seven solutions with compound concentrations of 50 mM, 25 mM, 12.5 mM, 6.25 mM, 3.12 mM, 1.56 mM, and 0.78 mM in DMSO, with a final eighth point as a DMSO only baseline. The compounds are then diluted into 100 mM Tris pH 8+0.05% azide+500 μM βME, to final compound concentrations of 500 μM, 250 μM, 125 μM, 62.5 μM, 31.2 μM, 15.6 μM, and 7.8 μM. The compound solutions are injected from lowest concentration to highest at 2 μL/min for 20 min. The SPR software method includes a 1 min wash before injection, the injection and then a 10 min wash after the injection. This particular protocol employs a regeneration step to reduce off the compound that is covalently bound before the next injection. The regeneration is accomplished by injecting 10 mM βME at 2 μL/min for 20 min.
(§6) These dilution series are analyzed by BIAevaluation software version 3.0. Sensorgrams are plotted for compound binding to cells of the chip labeled with protein-thiolate. The sensorgrams are modified by subtracting the sensorgrams for the appropriate compound dilutions over cell 1 (a blank cell). This subtraction step removes any RU changes that might occur due to nonspecific interactions between the compound and the chip itself or refractive changes in the buffer. Finally, the eight sensorgrams produced from the compound dilution series are zeroed at the average of their starting RUs. […]

[2] = target: T2, IL1R-I29C (Homo sapiens, UniProt P14778); assay: as above; type: binding; conditions: disulfide compound 100 μM, reductant 500 μM; fraction of protein-thiolate on the chip covalently bound
T2 construct: soluble interleukin-1 receptor, type 1 having a mutation to cysteine; made in house; host or cells: E. coli or baculovirus-infected insect cells (TN-5B1-4, High Five)
T2 sequence (P14778 18-336 E146C): T1 sequence (P14778 18-336 I30C) with C13I, E129C
Procedure: as §1, §2, §3, §4, §5, §6

[3] = target: T3, K43C-IL-2-SS -2 (Homo sapiens, UniProt P60568, K63C); assay: SPR binding of compounds to immobilized IL-2-SS-ligand complex (Examples 1-2); conditions: immobilized substrate-SS-ligand complex K43C-IL-2-SS -2
T3 construct: made in house; host or cells: E. coli
T3 sequence (P60568 21-153 K63C): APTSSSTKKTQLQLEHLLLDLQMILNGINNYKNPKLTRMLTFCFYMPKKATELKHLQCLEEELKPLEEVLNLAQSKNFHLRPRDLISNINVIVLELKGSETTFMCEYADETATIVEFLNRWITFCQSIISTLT
Procedure: as §1, with “chip is then normalized using” for “chip is normalized using”, “chip is next equilibrated in” for “chip is equilibrated in”, “coupling. This activation is done” for “coupling. This is done”, “reagents are first mixed in” for “reagents are mixed in”, “at […]. The chip” for “at 5 μL/min. The chip”
IL-2 cysteine mutants are expressed in E. coli cells and purified using standard procedures. The cysteine mutants are treated with 10 mM βME overnight to reduce the surface cysteine. The βME is removed and the protein-thiolate is placed in 100 mM HEPES buffer pH 7.4 (Nap-5 column, Pierce). […]
The protein-SS—ligand complex is next concentrated to 100 μM using a Millipore-UFV5BCCOO 5K NMWL membrane, 0.5 mL centrifugal filter and tube. […] After injection the change in RUs is measured by marking the RUs at t=0 and t=final and subtracting. […]
The dilution series are analyzed by BIAevaluation software version 3.0. […]

[4] = target: T4, immobilized IL-2 (Homo sapiens, UniProt P60568); assay: Double ligand SPR on immobilized interleukin-2 (Examples 9-11); type: binding; conditions: immobilized IL-2, no other compound
T4 construct: made in house; host or cells: E. coli
T4 sequence (P60568 21-153): as the sequence (P60568 21-153 K63C) above, with C43K counted along it
Procedure: A CM5 sensor chip (Biacore-BR-1000-14) is docked in a Biacore 2000 SPR device and normalized using a standard Biacore protocol with 70% glycerol. The chip is next equilibrated in PBS for approximately 1 hr at a 20 μL/min flow rate. The dextran surface of the chip is activated through an NHS/EDC coupling. This coupling is done using an amine coupling kit (Biacore—BR-100-50) containing N-hydroxysuccinimide (NHS 11.5 mg/mL) and N-ethyl-N′-(3-dimethylaminopropyl) carbodiimide hydrochloride (EDC 75 mg/mL). First, the two reagents are mixed in a 1:1 ratio and then 35 μL of the mixture are injected at 5 μL/min. The chip is activated one flow cell at a time, and that flow cell is subsequently labeled with protein.
IL-2 is expressed in E. coli cells and purified using standard procedures. Protein is then concentrated to 100 μM and the buffer is exchanged to 100 mM MES pH 5.75 (Nap-5 column, Pierce). A sensorgram is then run over the activated flow cell at 2,L/min of PBS. The IL-2 solution is then injected at 2 μL/min for 10 min. After injection the change in RUs is measured by marking the RUs at t=0 and t=final and subtracting. This gives the total RU change, which is related to the total mass of protein successfully coupled to the CM5 surface. The total mass will later be used to determine stoichiometry of binding. This procedure is then repeated with another arbitrary protein to create a measure for nonspecific binding. The arbitrary protein is immobilized on an adjacent cell. […] The sensorgram is then altered to flow across all four cells on the CM5 chip at 5 μL/min PBS. A solution of 1 M ethanolamine hydrochloride-NaOH pH 8.5 (Amine coupling kit, Biacore-BR-100-50) is injected at 5 μL/min for 7 min. Proteins are immobilized at densities of 100-160 fmol/mm^2. The chip is equilibrated overnight in PBS+0.05% azide+2% DMSO at 20 μL/min.
In this experiment, variable concentrations of a compound are tested at a constant concentration of another compound. The compound held constant is 2c, for example (structure shown in Example 2). To determine appropriate constant concentrations for 2c, a compound titration is first performed. Dilution series of the compounds are typically performed to produce seven solutions having final compound concentrations of 30 mM, 10 mM, 3.3 mM, 1.1 mM, 0.37 mM, 0.12 mM, and 0.041 mM; an eighth solution is a DMSO-only baseline. The compounds are then diluted into PBS+0.05% azide to final concentrations of 300 μM, 100 μM, 33 μM, 11 μM, 3.7 μM, 1.2 μM, 0.41 μM. The compound solutions are injected from lowest concentration to highest at 40 μL/min for 1 min. The SPR software method includes a 1 min wash before injection, the injection and then a 3 min wash after the injection.
These dilution series are analyzed by BIAevaluation software version 3.0. Sensorgrams are plotted for compound binding to the IL-2 labeled cell of the chip. The sensorgrams are modified by subtracting the sensorgrams for the appropriate compound dilutions over cell 1 (a blank cell). This subtraction step removes any RU changes that might occur due to non-specific interactions between the compound and the chip itself or refractive changes in the buffer. Finally, the eight sensorgrams produced from the compound dilution series are zeroed at the average of their starting RUs. Then the sensorgram produced by injecting DMSO only is subtracted to reveal the final sensorgrams used to determine relative binding.
To determine KdSPR for the compound, the compound concentration is plotted on the X-axis, while the fraction bound at the plateau of the injection is plotted on the Y-axis. The curve is then analyzed via non-linear regression analysis (Kaleidagraph, Synergy Software). […] The concentration chosen is where the RUs remain constant at the top of the binding curve and thus the IL-2:2c ratio is 1. For 2c, this concentration is 100 μM.
A second compound is then run, this time in both the presence and absence of 2c. […]

[5] = target: wild type human IL-2 (Homo sapiens, UniProt P60568); assay: SPR binding of compounds to immobilized wild type IL-2 (Examples 1-2); conditions: immobilized wild type human IL-2
Chain of wild type human IL-2 (P60568 21-153): as the sequence (P60568 21-153 K63C) above, with C43K counted along it

| Compound | Fraction bound IL1R-I13C [1] | Fraction bound IL1R-I29C [2] | Kd [3] | Kd,SPR IL-2 [4] | IL-2 wt Kd [5] |
| --- | --- | --- | --- | --- | --- |
| CC(=O)c1ccccc1NC(=O)c1ccc(NC(=O)CSSCCN)cc1 [Compound 12t] | 0.5 | 0.0 | – | – | – |
| NCCSSCCC(=O)NC(c1ccccc1)c1cc2ccccc2cn1 (centres unmarked) [Compound 14t] | 0.0 | 0.6 | – | – | – |

The next lines start with the values.

| Fraction bound IL1R-I13C [1] | Fraction bound IL1R-I29C [2] | Kd [3] | Kd,SPR IL-2 [4] | IL-2 wt Kd [5] | Compound |
| --- | --- | --- | --- | --- | --- |
| 0.0 | 0.2 | – | – | – | COc1cc(C(=O)N2CCCC(C(=O)NCCSSCCN)C2)ccc1O (centres unmarked) [Compound 15t] |
| – | – | 210 µM | Inactive | Inactive | COCN(C)C(=O)c1ccc(C(C)C)cc1 [Compound 4c] |
| 0.0 | 0.0 | – | – | – | COC(=O)c1cccc(NC(=O)c2ccc(NC(=O)CSSCCN)cc2)c1 [Compound 13t] |
